Earlier results as cited in patent US7666658B1, “Antibody catalysis of enantio- and diastereo-selective aldol reactions” (The Scripps Research Institute, priority 1999, dated 2010).

Details: retro-aldolization of fructose-1,6-bisphosphate, reported at 4° C.

For “muscle aldolase: nature's muscle aldolase, natural enzyme cleaving fructose-1,6-bisphosphate”, the efficiency is listed as 4.9×10^4 s^−1M^−1.
